Biological target: T1, hROCK-2 (Homo sapiens, UniProt O75116)
T1 construct: purchased Upstate
Assay: ROCK-2 Assay (33P-ATP FlashPlate kinase assay, biotinylated S6 peptide)
Format: biochemical
Conditions: hROCK-2 0.8 nM, 5 μM ATP, 1.5 μM biotinylated S6 peptide, room temperature, 60 min
Description: The reaction is stopped by addition of 150 μl of 0.1 M EDTA in Dulbecco's PBS. 170 μl from each well are loaded onto a FlashPlate (PerkinElmer) and incubated at room temperature for 30 min.

T1 sequence (O75116 whole entry): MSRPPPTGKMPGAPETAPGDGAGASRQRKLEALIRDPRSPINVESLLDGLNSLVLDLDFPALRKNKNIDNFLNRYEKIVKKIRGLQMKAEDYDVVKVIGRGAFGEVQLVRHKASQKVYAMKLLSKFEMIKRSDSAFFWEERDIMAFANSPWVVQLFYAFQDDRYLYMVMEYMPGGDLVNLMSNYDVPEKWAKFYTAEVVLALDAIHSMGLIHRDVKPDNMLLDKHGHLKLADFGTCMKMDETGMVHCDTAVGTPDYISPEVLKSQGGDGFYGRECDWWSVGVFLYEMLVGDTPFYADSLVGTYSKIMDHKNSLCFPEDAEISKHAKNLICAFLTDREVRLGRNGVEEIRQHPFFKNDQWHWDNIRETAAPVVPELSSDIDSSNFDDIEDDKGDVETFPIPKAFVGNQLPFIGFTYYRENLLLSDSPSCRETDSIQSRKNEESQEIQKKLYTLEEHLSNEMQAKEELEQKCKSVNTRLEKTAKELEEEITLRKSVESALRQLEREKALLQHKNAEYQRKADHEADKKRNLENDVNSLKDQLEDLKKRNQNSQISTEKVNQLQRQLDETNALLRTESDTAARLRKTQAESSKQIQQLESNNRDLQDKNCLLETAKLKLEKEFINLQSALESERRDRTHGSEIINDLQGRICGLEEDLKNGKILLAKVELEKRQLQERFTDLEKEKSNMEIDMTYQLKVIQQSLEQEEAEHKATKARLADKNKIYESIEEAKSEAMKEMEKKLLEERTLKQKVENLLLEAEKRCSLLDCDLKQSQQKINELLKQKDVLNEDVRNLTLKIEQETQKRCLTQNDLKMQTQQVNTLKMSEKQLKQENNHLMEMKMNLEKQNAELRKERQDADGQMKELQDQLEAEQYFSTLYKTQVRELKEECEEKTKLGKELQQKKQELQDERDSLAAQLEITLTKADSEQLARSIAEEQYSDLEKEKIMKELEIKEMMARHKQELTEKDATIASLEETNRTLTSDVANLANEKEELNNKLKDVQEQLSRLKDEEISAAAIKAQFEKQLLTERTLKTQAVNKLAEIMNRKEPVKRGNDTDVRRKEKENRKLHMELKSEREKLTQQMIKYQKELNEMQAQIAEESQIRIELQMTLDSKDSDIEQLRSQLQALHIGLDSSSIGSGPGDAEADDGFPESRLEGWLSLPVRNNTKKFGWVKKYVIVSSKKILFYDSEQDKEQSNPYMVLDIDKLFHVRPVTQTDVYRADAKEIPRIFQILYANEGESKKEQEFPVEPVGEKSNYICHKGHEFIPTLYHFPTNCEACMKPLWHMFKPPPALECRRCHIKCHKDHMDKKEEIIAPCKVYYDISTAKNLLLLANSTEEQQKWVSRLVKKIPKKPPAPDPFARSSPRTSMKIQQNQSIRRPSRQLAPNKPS

COc1cccc([C@H](C)NC(=O)c2ccc(-c3ccncc3)c(C)c2)c1 [Example 102, N—[(S)-1-(3-methoxy-phenyl)-ethyl]-3-methyl-4-pyridin-4-yl-benzamide] and COc1cccc([C@@H](C)NC(=O)c2ccc(-c3ccncc3)c(Cl)c2)c1 [Example 156, 3-Chloro-N—[(R)-1-(3-methoxy-phenyl)-ethyl]-4-pyridin-4-yl-benzamide] cannot be ordered by Ki: under 0.05 µM for the first, under 0.05 µM for the second.

C[C@@H](NC(=O)c1ccc(-c2ccncc2)cc1)c1ccc(Cl)cc1 [Example 90, N-[(1R)-1-(4-chlorophenyl)ethyl]-4-pyridin-4-ylbenzamide] and C[C@@H](NC(=O)c1ccc(-c2ccncc2)cc1)c1ccc(F)cc1 [Example 85, N-[(1R)-1-(4-fluorophenyl)ethyl]-4-pyridin-4-ylbenzamide] cannot be ordered by Ki: under 0.05 µM for the first, under 0.05 µM for the second.

Compared with O=C(N[C@H](CO)Cc1ccc(O)cc1)c1ccc(-c2ccncc2)cc1 [Example 15, N-[(1S)-2-hydroxy-1-(4-hydroxybenzyl)ethyl]-4-pyridin-4-ylbenzamide], O=C(N[C@H](CO)Cc1ccccc1)c1ccc(-c2ccncc2)cc1 [Example 7, N-[(1S)-1-benzyl-2-hydroxyethyl]-4-pyridin-4-ylbenzamide] is lower in Ki: 0.05 to 0.5 µM for the first, under 0.05 µM for the second.

Cc1cnccc1-c1ccc(C(=O)N[C@H](C)c2cccc(C(F)(F)F)c2)cc1 [Example 181, 4-(3-methyl-pyridin-4-yl)-N—[(R)-1-(3-trifluoromethyl-phenyl)-ethyl]-benzamide] and C[C@@H](NC(=O)c1ccc(-c2ccncc2)cc1)c1cccc(C(F)(F)F)c1 [Example 87, 4-pyridin-4-yl-N-{(1R)-1-[3-(trifluoromethyl)phenyl]ethyl}benzamide] cannot be ordered by Ki: under 0.05 µM for the first, under 0.05 µM for the second.

C[C@@H](NC(=O)c1ccc(-c2ccncc2)cc1)c1ccccn1 [Example 80, 4-pyridin-4-yl-N-[(1R)-1-pyridin-2-ylethyl]benzamide] and CC(NC(=O)c1ccc(-c2ccncc2)cc1)c1ccccn1 (centres unmarked) [Example 76, 4-pyridin-4-yl-N-(1-pyridin-2-ylethyl)benzamide] fall in the same range of Ki: 0.05 to 0.5 µM for the first, 0.05 to 0.5 µM for the second.

O=C(N[C@H](CCO)c1ccccc1)c1ccc(-c2ccncc2)cc1 [Example 2, N-[(1R)-3-hydroxy-1-phenylpropyl]-4-pyridin-4-ylbenzamide] and CCC(NC(=O)c1ccc(-c2ccncc2)cc1)c1ccccc1 (centres unmarked) [Example 75, N-(1-phenylpropyl)-4-pyridin-4-ylbenzamide] cannot be ordered by Ki: under 0.05 µM for the first, under 0.05 µM for the second.

Cc1cnccc1-c1ccc(C(=O)NC2CCCc3ccccc32)cc1 (centres unmarked) [Example 160, 4-(3-methyl-pyridin-4-yl)-N-(1,2,3,4-tetrahydro-naphthalen-1-yl)-benzamide] and COc1ccccc1[C@@H](C)NC(=O)c1ccc(-c2ccncc2C)cc1 [Example 175, N—[(R)-1-(2-methoxy-phenyl)-ethyl]-4-(3-methyl-pyridin-4-yl)-benzamide] fall in the same range of Ki: 0.05 to 0.5 µM for the first, 0.05 to 0.5 µM for the second.

C[C@@H](NC(=O)c1ccc(-c2ccncc2)cc1Cl)c1ccccc1 [Example 191, 2-chloro-N—((R)-1-phenyl-ethyl)-4-pyridin-4-yl-benzamide] and COc1cc(-c2ccncc2)ccc1C(=O)N[C@@H](C)c1ccccc1 [Example 114, 2-methoxy-N—((S)-1-phenyl-ethyl)-4-pyridin-4-yl-benzamide] fall in the same range of Ki: 0.05 to 0.5 µM for the first, 0.05 to 0.5 µM for the second.

O=C(NC(Cc1ccccc1)c1ccccc1)c1ccc(-c2ccncc2)cc1 (centres unmarked) [Example 48, N-(1,2-diphenylethyl)-4-pyridin-4-ylbenzamide] and O=C(NC(c1ccccc1)[C@@H](O)c1ccccc1)c1ccc(-c2ccncc2)cc1 (stereo partly drawn) [Example 34, N-[(2S)-2-hydroxy-1,2-diphenylethyl]-4-pyridin-4-ylbenzamide] fall in the same range of Ki: 0.05 to 0.5 µM for the first, 0.05 to 0.5 µM for the second.

Compared with C[C@@H](NC(=O)c1ccc(-c2ccncc2)cc1)c1cc(C(F)(F)F)cc(C(F)(F)F)c1 [Example 89, N-{(1R)-1-[3,5-bis(trifluoromethyl)phenyl]ethyl}-4-pyridin-4-ylbenzamide], C[C@@H](NC(=O)c1ccc(-c2ccncc2)cc1)c1ccc2ccccc2c1 [Example 91, N-[(1R)-1-(2-naphthyl)ethyl]-4-pyridin-4-ylbenzamide] is lower in Ki: 0.05 to 0.5 µM for the first, under 0.05 µM for the second. The second binds more tightly here.

First: COc1cc(-c2ccncc2)ccc1C(=O)NC(CO)c1cc(Cl)cc(Cl)c1 (centres unmarked) [Example 135, N-[1-(3,5-dichloro-phenyl)-2-hydroxy-ethyl]-2-methoxy-4-pyridin-4-ylbenzamide]
Second: Cc1cnccc1-c1ccc(C(=O)NC(CO)c2cc(Cl)cc(Cl)c2)cc1 (centres unmarked) [Example 185, N-[1-(3,5-dichloro-phenyl)-2-hydroxy-ethyl]-4-(3-methyl-pyridin-4-yl)-benzamide]
The Ki of the first is lower: under 0.05 µM for the first, 0.05 to 0.5 µM for the second. The first binds more tightly here.

COC[C@@H](NC(=O)c1ccc(-c2ccncc2)cc1)c1ccccc1 [Example 188, N—((S)-2-methoxy-1-phenyl-ethyl)-4-pyridin-4-yl-benzamide] and O=C(NC(CN1CCCC1)c1ccccc1)c1ccc(-c2ccncc2)cc1 (centres unmarked) [Example 31, N-(1-phenyl-2-pyrrolidin-1-ylethyl)-4-pyridin-4-ylbenzamide] cannot be ordered by Ki: under 0.05 µM for the first, under 0.05 µM for the second.

COc1cccc([C@@H](C)NC(=O)c2ccc(-c3ccncc3)cc2F)c1 [Example 245, 2-fluoro-N—[(R)-1-(3-methoxy-phenyl)-ethyl]-4-pyridin-4-yl-benzamide] and COc1cccc([C@@H](C)NC(=O)c2ccc(-c3ccncc3)cc2OC)c1 [Example 103, 2-methoxy-N—[(R)-1-(3-methoxy-phenyl)-ethyl]-4-pyridin-4-yl-benzamide] cannot be ordered by Ki: under 0.05 µM for the first, under 0.05 µM for the second.

Cc1ccc(C(CN)NC(=O)c2ccc(-c3ccncc3)cc2)cc1 (centres unmarked) [Example 46, N-[2-amino-1-(4-methylphenyl)ethyl]-4-pyridin-4-ylbenzamide] and Cc1ccc(C(CO)NC(=O)c2ccc(-c3ccncc3)cc2)cc1C (centres unmarked) [Example 41, N-[1-(3,4-dimethylphenyl)-2-hydroxyethyl]-4-pyridin-4-ylbenzamide] cannot be ordered by Ki: under 0.05 µM for the first, under 0.05 µM for the second.

Cc1cnccc1-c1ccc(C(=O)N[C@H](C)c2cccc3ccccc23)cc1 [Example 159, 4-(3-methyl-pyridin-4-yl)-N—((R)-1-naphthalen-1-yl-ethyl)-benzamide] and Cc1cnccc1-c1ccc(C(=O)NC(CO)c2cccc3ccccc23)cc1 (centres unmarked) [Example 172, N-(2-hydroxy-1-naphthalen-1-yl-ethyl)-4-(3-methyl-pyridin-4-yl)-benzamide] cannot be ordered by Ki: under 0.05 µM for the first, under 0.05 µM for the second.

COc1cccc([C@H](C)NC(=O)c2ccc(-c3ccncc3)c(F)c2)c1 [Example 236, 3-fluoro-N—[(S)-1-(3-methoxy-phenyl)-ethyl]-4-pyridin-4-yl-benzamide] and COc1cccc([C@H](C)NC(=O)c2ccc(-c3ccncc3C)cc2)c1 [Example 179, N—[(S)-1-(3-methoxy-phenyl)-ethyl]-4-(3-methyl-pyridin-4-yl)-benzamide] fall in the same range of Ki: 0.05 to 0.5 µM for the first, 0.05 to 0.5 µM for the second.

Compared with COc1cc(-c2ccncc2)ccc1C(=O)N[C@H](C)c1ccc2ccccc2c1 [Example 107, 2-methoxy-N—((R)-1-naphthalen-2-yl-ethyl)-4-pyridin-4-yl-benzamide], COc1cc(-c2ccncc2)ccc1C(=O)N[C@H](C)c1cccc2ccccc12 [Example 106, 2-methoxy-N—((R)-1-naphthalen-1-yl-ethyl)-4-pyridin-4-yl-benzamide] is lower in Ki: 0.05 to 0.5 µM for the first, under 0.05 µM for the second.

CC(NC(=O)c1ccc(-c2ccncc2)cc1)c1cccc(OCc2ccccc2)c1 (centres unmarked) [Example 151, N-[1-(3-benzyloxy-phenyl)-ethyl]-4-pyridin-4-yl-benzamide] and CC(C)Oc1cccc(C(C)NC(=O)c2ccc(-c3ccncc3)cc2)c1 (centres unmarked) [Example 152, N-[1-(3-isopropoxy-phenyl)-ethyl]-4-pyridin-4-yl-benzamide] cannot be ordered by Ki: under 0.05 µM for the first, under 0.05 µM for the second.

O=C(N[C@@H](Cc1ccccc1)CN1CCCC1)c1ccc(-c2ccncc2)cc1 [Example 28, N-[(1S)-1-benzyl-2-pyrrolidin-1-ylethyl]-4-pyridin-4-ylbenzamide] and COc1cccc(C(CN2CCCC2)NC(=O)c2ccc(-c3ccncc3)cc2)c1 (centres unmarked) [Example 149, N-[1-(3-methoxy-phenyl)-2-pyrrolidin-1-yl-ethyl]-4-pyridin-4-yl-benzamide] cannot be ordered by Ki: under 0.05 µM for the first, under 0.05 µM for the second.

Compared with COc1ccccc1C(CO)NC(=O)c1ccc(-c2ccncc2C)cc1 (centres unmarked) [Example 171, N-[2-hydroxy-1-(2-methoxy-phenyl)-ethyl]-4-(3-methyl-pyridin-4-yl)-benzamide], Cc1cnccc1-c1ccc(C(=O)N[C@H](C)c2ccc(F)cc2)cc1 [Example 180, N—[(R)-1-(4-fluoro-phenyl)-ethyl]-4-(3-methyl-pyridin-4-yl)-benzamide] is lower in Ki: 0.05 to 0.5 µM for the first, under 0.05 µM for the second.

COc1cccc([C@@H](C)NC(=O)c2ccc(-c3ccncc3F)cc2OC)c1 [Example 247, 4-(3-fluoro-pyridin-4-yl)-2-methoxy-N—[(R)-1-(3-methoxy-phenyl)-ethyl]-benzamide] and COc1cccc([C@@H](C)NC(=O)c2ccc(-c3ccncc3F)cc2C)c1 [Example 246, 4-(3-fluoro-pyridin-4-yl)-N—[(R)-1-(3-methoxy-phenyl)-ethyl]-2-methyl-benzamide] cannot be ordered by Ki: under 0.05 µM for the first, under 0.05 µM for the second.

CN1CCN(CC(NC(=O)c2ccc(-c3ccncc3)cc2)c2ccccc2)CC1 (centres unmarked) [Example 33, N-[2-(4-methylpiperazin-1-yl)-1-phenylethyl]-4-pyridin-4-ylbenzamide] and CC(C)(C)OC(=O)NCC(NC(=O)c1ccc(-c2ccncc2)cc1)c1ccccc1 (centres unmarked) [Example 3, tert-Butyl-{2-phenyl-2-[(4-pyridin-4-ylbenzoyl)amino]ethyl}carbamate] fall in the same range of Ki: 0.05 to 0.5 µM for the first, 0.05 to 0.5 µM for the second.

First: CC(NC(=O)c1ccc(-c2ccncc2)cc1)c1cccs1 (centres unmarked) [Example 72, 4-pyridin-4-yl-N—O-(2-thienyl)ethypenzamide]
Second: Cc1ccc(C(C)NC(=O)c2ccc(-c3ccncc3)cc2)o1 (centres unmarked) [Example 71]
The Ki of the first is lower: under 0.05 µM for the first, 0.05 to 0.5 µM for the second.

For COc1cc(-c2ccncc2)ccc1C(=O)N[C@H](C)c1ccccc1 [Example 112, 2-methoxy-N—((R)-1-phenyl-ethyl)-4-pyridin-4-yl-benzamide], the Ki was under 0.05 µM.

From patent US20150105386A1, “4-(4-PYRIDINYL)-BENZAMIDES AND THEIR USE AS ROCK ACTIVITY MODULATORS” (AbbVie Deutschland GmbH & Co KG, priority 2007, published 2015)
